In brackets after ≈: the same amount, converted by molar mass. Marks after values point to notes of the source that are not given here. Non-standard residues stand in square brackets, D forms with d. Residues, ends and D or L forms follow the SMILES beside them. dPhe(4-Cl) = N[C@H](Cc1ccc(Cl)cc1)C(=O)O; d2Nal = N[C@H](Cc1ccc2ccccc2c1)C(=O)O; dNva = CCC[C@@H](N)C(=O)O
How the values were obtained:
[1] = test system: Staphylococcus aureus ATCC 25923; assay type: cell-based
In short: (§1)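 Read-out is MIC, from a CLSI-conformant twofold microdilution series, done in quintuplicate in parallel.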

[2] = test system: Enterococcus ATCC 29212; assay type: cell-based
In short: as §1

[3] = test system: Candida albicans ATCC MYA-2876; assay type: cell-based
In short: as §1

[4] = test system: Klebsiella pneumoniae ATCC 700603; assay type: cell-based
In short: as §1

[5] = test system: Pseudomonas aeruginosa ATCC 27853; assay type: cell-based
In short: as §1

[6] = test system: Salmonella typhimurium ATCC 14028; assay type: cell-based
In short: as §1

[7] = test system: Bacillus subtilis ATCC 6633; assay type: cell-based
In short: as §1

[8] = test system: Serratia marcescens ATCC 29021; assay type: cell-based
In short: as §1

[9] = test system: Candida utilis ATCC 9950; assay type: cell-based
In short: as §1

[10] = test system: Candida tropicalis ATCC 750; assay type: cell-based
In short: as §1

[11] = test system: Escherichia coli ATCC 25922; assay type: cell-based
In short: as §1

[12] = test system: Pseudomonas aeruginosa ATCC 27853; experiment: Injectable formulations on mice infected with peritonitis; assay type: in vivo, ICR mice; details: twice a day for 3 days; for Number of mice that died on each day after infection: day 1 / Number of mice that died on each day after infection: day 2 / Number of mice that died on each day after infection: day 3 / Number of mice that died on each day after infection: day 4 / Number of mice that died on each day after infection: day 5 / Average survival times (Days): n = 10; for Average survival times (Days): observed for 14 d; for survival time of mice infected with Pseudomonas aeruginosa: tail vein, observed 14 d
In short: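 ICR mice of both sexes (10 per group) infected intraperitoneally with 0.2 mL P. aeruginosa ATCC 27853 at 1×10^9 CFU/mL. Injectable formulations dosed by body weight via tail vein twice daily for 3 days; deaths and survival time recorded over 14 d.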

Row | Compound | MIC Staphylococcus aureus ATCC 25923 [1] [µg/mL] | MIC Enterococcus ATCC 29212 [2] [µg/mL] | MIC Candida albicans ATCC MYA-2876 [3] [µg/mL] | MIC Klebsiella pneumoniae ATCC 700603 [4] [µg/mL] | MIC Pseudomonas aeruginosa ATCC 27853 [5] [µg/mL] | MIC Salmonella typhimurium ATCC 14028 [6] [µg/mL] | MIC Bacillus subtilis ATCC 6633 [7] [µg/mL] | MIC Serratia marcescens ATCC 29021 [8] [µg/mL] | MIC Candida utilis ATCC 9950 [9] [µg/mL] | MIC Candida tropicalis ATCC 750 [10] [µg/mL] | MIC Escherichia coli ATCC 25922 [11] [µg/mL] | Number of mice that died on each day after infection: day 1 ([12]; 0.2 mg/kg via tail vein) [Mouse] | Number of mice that died on each day after infection: day 2 ([12]; 0.2 mg/kg via tail vein) [Mouse] | Number of mice that died on each day after infection: day 3 ([12]; 0.2 mg/kg via tail vein) [Mouse] | Number of mice that died on each day after infection: day 1 ([12]; 1 mg/kg via tail vein) [Mouse] | Number of mice that died on each day after infection: day 2 ([12]; 1 mg/kg via tail vein) [Mouse] | Number of mice that died on each day after infection: day 3 ([12]; 1 mg/kg via tail vein) [Mouse] | Number of mice that died on each day after infection: day 4 ([12]; 1 mg/kg via tail vein) [Mouse] | Number of mice that died on each day after infection: day 5 ([12]; 1 mg/kg via tail vein) [Mouse] | Average survival times (Days) ([12]; 1 mg/kg via tail vein) | also measured
1 | CC(=O)N[C@H](CCCNC(=N)N)C(=O)N[C@H](CCCCN)C(=O)N[C@H](CC(C)C)C(=O)N[C@H](CC(C)C)C(=O)N[C@H](Cc1ccc2ccccc2c1)C(=O)N[C@H](CCCCN)C(=O)N[C@H](CC(C)C)C(=O)N[C@H](CCCCN)C(=O)N[C@H](Cc1ccc2ccccc2c1)C(=O)N[C@H](CCCCN)C(=O)N[C@H](CCCNC(=N)N)C(N)=O [LV-18] (Ac-[dR][dK][dL][dL][d2Nal][dK][dL][dK][d2Nal][dK][dR]-NH2) | 2 (≈ 1.24 µM) | 4 (≈ 2.47 µM) | 4 (≈ 2.47 µM) | 2 (≈ 1.24 µM) | 1 (≈ 0.618 µM) | 4 (≈ 2.47 µM) | 4 (≈ 2.47 µM) | 4 (≈ 2.47 µM) | 8 (≈ 4.94 µM) | 2 (≈ 1.24 µM) | 1 (≈ 0.618 µM) | 2 | 1 | 1 | 0 | 1 | 0 | 1 | 1 | 10.9**** Days | Number of mice that died on each day after infection: day 4 ([12]; 0.2 mg/kg via tail vein): 1 Mouse; Number of mice that died on each day after infection: day 5 ([12]; 0.2 mg/kg via tail vein): 1 Mouse; Average survival times (Days) ([12]; 0.2 mg/kg via tail vein): 7.2** Days; Number of mice that died on each day after infection: day 1 ([12]; 5 mg/kg via tail vein): 0 Mouse; Number of mice that died on each day after infection: day 2 ([12]; 5 mg/kg via tail vein): 2 Mouse; Number of mice that died on each day after infection: day 3 ([12]; 5 mg/kg via tail vein): 1 Mouse; Number of mice that died on each day after infection: day 4 ([12]; 5 mg/kg via tail vein): 0 Mouse; Number of mice that died on each day after infection: day 5 ([12]; 5 mg/kg via tail vein): 0 Mouse; Average survival times (Days) ([12]; 5 mg/kg via tail vein): 10.5**** Days; survival time of mice infected with Pseudomonas aeruginosa [12]: superior to those of the Levofloxacin group
2 | CCC[C@@H](NC(=O)[C@@H](CCCCN)NC(=O)[C@@H](CCCNC(=N)N)NC(C)=O)C(=O)N[C@H](CCC)C(=O)N[C@H](Cc1ccc2ccccc2c1)C(=O)N[C@H](CCCNC(=N)N)C(=O)N[C@H](CCC)C(=O)N[C@H](CCCCN)C(=O)N[C@H](Cc1ccc2ccccc2c1)C(=O)N[C@H](CCCNC(=N)N)C(=O)N[C@H](CCCCN)C(N)=O [LV-13] (Ac-[dR][dK][dNva][dNva][d2Nal][dR][dNva][dK][d2Nal][dR][dK]-NH2) | 2 (≈ 1.25 µM) | 8 (≈ 4.99 µM) | 16 (≈ 9.97 µM) | 4 (≈ 2.49 µM) | 4 (≈ 2.49 µM) | 2 (≈ 1.25 µM) | 4 (≈ 2.49 µM) | 4 (≈ 2.49 µM) | 8 (≈ 4.99 µM) | 4 (≈ 2.49 µM) | 2 (≈ 1.25 µM) |  |  |  | 3 | 1 | 0 | 1 | 0 | 7.9** Days | 
3 | CC(=O)N[C@H](CCCNC(=N)N)C(=O)N[C@H](CCCCN)C(=O)N[C@H](CC(C)C)C(=O)N[C@H](CC(C)C)C(=O)N[C@H](Cc1ccc(Cl)cc1)C(=O)N[C@H](CCCCN)C(=O)N[C@H](CC(C)C)C(=O)N[C@H](CCCCN)C(=O)N[C@H](Cc1ccc(Cl)cc1)C(=O)N[C@H](CCCCN)C(=O)N[C@H](CCCNC(=N)N)C(N)=O [LV-7] (Ac-[dR][dK][dL][dL][dPhe(4-Cl)][dK][dL][dK][dPhe(4-Cl)][dK][dR]-NH2) | 1 (≈ 0.63 µM) | 8 (≈ 5.04 µM) | 8 (≈ 5.04 µM) | 2 (≈ 1.26 µM) | 2 (≈ 1.26 µM) | 4 (≈ 2.52 µM) | 4 (≈ 2.52 µM) | 8 (≈ 5.04 µM) | 8 (≈ 5.04 µM) | 8 (≈ 5.04 µM) | 4 (≈ 2.52 µM) |  |  |  | 0 | 1 | 1 | 1 | 1 | 9.8*** Days | 
4 | CC(=O)N[C@H](CCCCN)C(=O)N[C@H](CCCCN)C(=O)N[C@H](CC(C)C)C(=O)N[C@H](CC(C)C)C(=O)N[C@H](Cc1ccc2ccccc2c1)C(=O)N[C@H](CCCNC(=N)N)C(=O)N[C@H](CC(C)C)C(=O)N[C@H](CCCCN)C(=O)N[C@H](Cc1ccc2ccccc2c1)C(=O)N[C@H](CCCNC(=N)N)C(=O)N[C@H](CCCCN)C(N)=O [LV-19] (Ac-[dK][dK][dL][dL][d2Nal][dR][dL][dK][d2Nal][dR][dK]-NH2) | 1 (≈ 0.618 µM) | 2 (≈ 1.24 µM) | 8 (≈ 4.94 µM) | 2 (≈ 1.24 µM) | 1 (≈ 0.618 µM) | 2 (≈ 1.24 µM) | 8 (≈ 4.94 µM) | 8 (≈ 4.94 µM) | 8 (≈ 4.94 µM) | 4 (≈ 2.47 µM) | 1 (≈ 0.618 µM) | 3 | 2 | 0 | 0 | 0 | 1 | 0 | 2 | 11.1**** Days | Number of mice that died on each day after infection: day 4 ([12]; 0.2 mg/kg via tail vein): 0 Mouse; Number of mice that died on each day after infection: day 5 ([12]; 0.2 mg/kg via tail vein): 0 Mouse; Average survival times (Days) ([12]; 0.2 mg/kg via tail vein): 7.7** Days; Number of mice that died on each day after infection: day 1 ([12]; 5 mg/kg via tail vein): 1 Mouse; Number of mice that died on each day after infection: day 2 ([12]; 5 mg/kg via tail vein): 0 Mouse; Number of mice that died on each day after infection: day 3 ([12]; 5 mg/kg via tail vein): 2 Mouse; Number of mice that died on each day after infection: day 4 ([12]; 5 mg/kg via tail vein): 0 Mouse; Number of mice that died on each day after infection: day 5 ([12]; 5 mg/kg via tail vein): 0 Mouse; Average survival times (Days) ([12]; 5 mg/kg via tail vein): 10.5**** Days; survival time of mice infected with Pseudomonas aeruginosa [12]: superior to those of the Levofloxacin group
5 | CC(=O)N[C@H](CCCNC(=N)N)C(=O)N[C@H](CCCNC(=N)N)C(=O)N[C@H](CC(C)C)C(=O)N[C@H](CC(C)C)C(=O)N[C@H](Cc1ccc2ccccc2c1)C(=O)N[C@H](CCCNC(=N)N)C(=O)N[C@H](CC(C)C)C(=O)N[C@H](CCCNC(=N)N)C(=O)N[C@H](Cc1ccc2ccccc2c1)C(=O)N[C@H](CCCNC(=N)N)C(=O)N[C@H](CCCNC(=N)N)C(N)=O [LV-1] (Ac-[dR][dR][dL][dL][d2Nal][dR][dL][dR][d2Nal][dR][dR]-NH2) | 1 (≈ 0.578 µM) | 2 (≈ 1.16 µM) | 8 (≈ 4.62 µM) | 4 (≈ 2.31 µM) | 1 (≈ 0.578 µM) | 2 (≈ 1.16 µM) | 4 (≈ 2.31 µM) | 2 (≈ 1.16 µM) | 8 (≈ 4.62 µM) | 4 (≈ 2.31 µM) | 1 (≈ 0.578 µM) | 1 | 2 | 1 | 0 | 1 | 1 | 1 | 0 | 10.7**** Days | Number of mice that died on each day after infection: day 4 ([12]; 0.2 mg/kg via tail vein): 1 Mouse; Number of mice that died on each day after infection: day 5 ([12]; 0.2 mg/kg via tail vein): 1 Mouse; Average survival times (Days) ([12]; 0.2 mg/kg via tail vein): 7.3** Days; Number of mice that died on each day after infection: day 1 ([12]; 5 mg/kg via tail vein): 2 Mouse; Number of mice that died on each day after infection: day 2 ([12]; 5 mg/kg via tail vein): 1 Mouse; Number of mice that died on each day after infection: day 3 ([12]; 5 mg/kg via tail vein): 1 Mouse; Number of mice that died on each day after infection: day 4 ([12]; 5 mg/kg via tail vein): 0 Mouse; Number of mice that died on each day after infection: day 5 ([12]; 5 mg/kg via tail vein): 0 Mouse; Average survival times (Days) ([12]; 5 mg/kg via tail vein): 9.1** Days; survival time of mice infected with Pseudomonas aeruginosa [12]: superior to those of the Levofloxacin group
